From PMC7766159, “Novel Psychoactive Phenethylamines: Impact on Genetic Material” (International Journal of Molecular Sciences, 2020)

Assays:
TK6 cells [1] = test: Cytostasis analysis (Relative Population Doubling, Guava ViaCount); format: cell-based, human; conditions: for Relative Population Doubling (RPD): 26 h treatment, vs untreated control C (-) = 100%, mean ± SEM; for concentrations that caused an RPD value well above 55 ± 5% (OECD threshold): 26 h, tested 6.25-75 µM
Source text: In addition, to make the genotoxicity test reliable, it is necessary to check the cellular proliferation in order to verify that a sufficient number of cells has undergone mitosis and so transmitted the genetic damage suffered to the daughter cells. For this purpose, the OECD recommends the measurement of the Relative Population Doubling (RPD) to estimate the cytostasis and, analogously to the cytotoxicity, establishes a threshold at most equal to 55 ± 5% [45].
(§1) In all experiments, aliquots of 2 × 10^5 of TK6 cells were treated with increasing concentrations of phenethylamines from 0 to 75 µM and incubated for 26 h, corresponding to two replication cycles for the analysis of cytotoxicity, cytostasis, apoptosis, and genotoxicity, while for the analysis of ROS, 1 h of treatment was performed.
In parallel, always using the Guava ViaCount Reagent, the number of cells seeded at time 0 and that measured at the end of the phenethylamines treatment time was used to check the correct replication in the control cultures and to compare it to that measured in the treated cultures by the RPD, calculated as the following formula [46, 47]: RPD= (No. of Population doublings in treated cultures)/(No. of Population doublings in control cultures) × 100
Similarly to cytotoxicity, the cytostasis was checked in order to verify that cell proliferation respected the threshold established by the OECD guideline (55 ± 5%).

TK6 cells [2] = test: Genotoxicity analysis (micronucleus frequency, automated flow cytometric protocol); format: cell-based, human; conditions: for MNi frequency fold increase: vs C (-); for relative genotoxic potency: comparison within the series
Method: as §1
The analysis of the MNi frequency was performed using a new automated flow cytometric protocol that we recently developed in our laboratory. The detailed protocol is described in the paper by Lenzi et al. and was used in our previous publication to analyze the genotoxicity of some synthetic cannabinoids.
Briefly, at the end of the phenethylamines treatment time, 7 × 10^5 cells were collected and incubated with 7-AAD at RT for 5 min, after which the cells were lysed and stained with SYTOX Green for 1 h. After, a total of 10,000 nuclei, derived from viable and proliferating cells (7-AAD negative), and the corresponding number of micronuclei were acquired. The discrimination between nuclei and MNi occurs on the basis of the different size analyzed by Forward Scatter (FSC), and the different intensity of green fluorescence (SYTOX Green).
The MNi frequencies (number of MNi/10,000 nuclei) recorded in treated cultures were normalized on those recorded in the untreated control cultures, accounted equal to 1 and expressed as MNi frequency fold increase.
As recommended by OECD guideline 487, we used MMC and VINB as positive controls, being known clastogen and aneuploidogen agents, respectively.

TK6 cells [3] = test: Apoptosis analysis (Guava Nexin Assay); format: cell-based, human; conditions: 26 h
Method: as §1
The percentage of apoptotic cells was evaluated by the Guava Nexin Assay according to the procedure by Lenzi et al..
Briefly, at the end of the phenethylamines treatment time, the percentage of apoptotic cells was assessed using the Guava Nexin Reagent. The reagent contains the 7-aminoactinomycin D (7-AAD), a cell non-permeant dye, that allows discrimination between live and dead cells and the Annexin-V-PE that allows the identification of apoptotic cells by binding the phosphatidylserine on the cell surface.
100 μL of reagent were added to 100 μL of cell suspension (~1 × 10^5 cells) and incubated for 20 min at RT. After, a total of 2000 events were acquired and analyzed by Guava Nexin software.
The apoptotic cell percentages recorded in the cultures treated with phenethylamines different concentrations were normalized on those recorded in the untreated control cultures, accounted equal to 1 and expressed as apoptotic fold increase.

TK6 cells [4] = test: Cytotoxicity analysis (Guava ViaCount, cell viability); format: cell-based, human; conditions: 26 h; for concentration up to which no cytotoxicity and cytostasis was induced: Guava ViaCount assay
Method: In the preliminary phase of the research, we determined the concentrations to be used in the subsequent experiments aimed at evaluating the potential genotoxicity of different molecules under study. First, we assessed the 2C-H, 2C-I, 2C-B, 25B-NBOMe, and MDMA-induced cytotoxicity after 26 h treatment (time required by TK6 cells to carry out two cell cycles) by measuring the percentage of live cells at the different concentrations tested (6.25, 12.5, 25, 35, 50, 75 µM). This value was normalized on the one obtained in the untreated control cultures C (-) equal to 100% in order to check whether the cellular viability complied with the OECD threshold (equal to 55 ± 5%).
as §1
Cytotoxicity assay was performed as previously described by Lenzi et al.. Briefly, at the end of the phenethylamines treatment time, 1.5 × 10^5 cells were stained with Guava ViaCount Reagent. The reagent contains the Propidium Iodide (PI) that allows us to discriminate viable from dead cells based on different permeability to DNA-binding dye.
180 μL of reagent were added to 20 μL of cell suspension and incubated for 5 min at room temperature (RT). After, a total of 1000 events were acquired and analyzed by Guava ViaCount software.
The results obtained from the samples treated with different concentrations of phenethylamines were normalized on those obtained from the untreated control cultures, accounted equal to 100%.

HepG2 = test system: HepG2; design: method as in PMID 28645576; conditions: 24 h treatment; cited from earlier work
HepG2 cells = test system: HepG2 cells; design: method as in PMID 31068823; conditions: cited from earlier work
TK6 cells [5] = test system: TK6 cells; design: method as in PMID 27637481; conditions: CYP1A1, 1B1 and 1A2 not expressed; cited from earlier work
SH-SY5Y = test system: SH-SY5Y; design: method as in PMID 28067045, PMID 30925718, PMID 28527032; conditions: 2–24 h treatment, concentration-dependent (1000–3000 μM); cited from earlier work
TK6 cells [6] = test: ROS analysis (DCFH2-DA fluorescence); format: cell-based, human; conditions: 1 h; 35 µM for 2C-H, 2C-I and MDMA, 12.5 µM for 2C-B and 25B-NBOMe; vs C (-) equal to 1
Method: Lastly, in order to identify a possible mechanism of action at the basis of the genotoxic activity, TK6 cells were treated for 1 h with the highest concentration tested for each substance: 35 µM for 2C-H, 2C-I and MDMA, and 12.5 µM for 2C-B and 25B-NBOMe, and then the possible ROS induction was measured.
as §1
At the end of the phenethylamines treatment time, 2 × 10^5 cells were centrifuged, resuspended in PBS1X to measure intracellular ROS level and stained at 37 °C in the dark for 20 min with 2′,7′-dichlorodihydrofluorescin diacetate (DCFH2-DA). After, a total of 5000 events, derived from viable cells, were acquired and analyzed using Guava Incyte software.
The fluorescence intensity of 2′,7′-dichlorofluorescin (DCF) (which forms in cells in the presence of ROS) recorded in treated cultures was normalized on those recorded in the untreated control cultures, accounted equal to 1 and expressed as a ROS fold increase.

C2C12 myoblast cells = test system: C2C12 myoblast cells; design: method as in PMID 30925718; conditions: concentrations 30 times higher than in this study, 24 h; cited from earlier work
[7] = test system: undifferentiated and differentiated human SH-SY5Y cells; design: method as in PMID 28067045; conditions: cited from earlier work
primary rat hepatocytes = test system: primary rat hepatocytes; design: method as in PMID 27255387; conditions: 24 h; cited from earlier work
[8] = vs untreated control C (-) equal to 1, tested concentrations
[9] = both tested concentrations, 6.25 µM and 12.5 µM, 26 h

Row | SMILES | Relative Population Doubling (RPD) (TK6 cells [1]; 6.25 µM) | Relative Population Doubling (RPD) (TK6 cells [1]; 12.5 µM) | Relative Population Doubling (RPD) (TK6 cells [1]; 25 µM) | Relative Population Doubling (RPD) (TK6 cells [1]; 35 µM) | Relative Population Doubling (RPD) (TK6 cells [1]; 50 µM) | Relative Population Doubling (RPD) (TK6 cells [1]; 75 µM) | concentrations that caused an RPD value well above 55 ± 5% (OECD threshold) (TK6 cells [1]) | further results
1 | COc1ccc(OC)c(CCN)c1 [2C-H, 2,5-dimethoxyphenethylamine] | 97.5% ± 0.9 | 81.1% ± 1.8 | 85.0% ± 2.4 | 74.0% ± 1.8 | 34.1% ± 1.2 | 13.0% ± 1.5 | up to 35 µM | MNi frequency fold increase (TK6 cells [2]; 35 µM, 26 h): statistically significant increase; apoptosis fold increase (TK6 cells [3]; [8]): never reached a doubling; concentration up to which no cytotoxicity and cytostasis was induced (TK6 cells [4]): up to 35 µM
2 | CCCC(C(=O)c1ccc2ccccc2c1)N1CCCC1 (stereo not shown) [naphyrone] | – | – | – | – | – | – | – | concentration that increased O2•− levels (HepG2): 0.2 mM
3 | CC(N)Cc1ccc(Cl)cc1 (stereo not shown) [4-chloroamphetamine] | – | – | – | – | – | – | – | mitochondrial superoxide levels (HepG2 cells): increase mitochondrial superoxide levels
4 | COc1cc(CCN)c(OC)cc1Br [2C-B, 2,5-dimethoxy-4-bromophenethylamine] | 95.9% ± 0.7 | 93.1% ± 2.1 | 69.7% ± 1.6 | 63.1% ± 1.6 | 10.0% ± 1.8 | 0.0% | up to 35 µM | MNi frequency fold increase (TK6 cells [2]; [9]): increased at both the tested concentrations; relative genotoxic potency (TK6 cells [2]): stronger genotoxic agents than 2C-I and 2C-H; apoptosis fold increase (TK6 cells [3]; 25 µM and 35 µM, vs C (-)): statistically significant increase; concentration up to which no cytotoxicity and cytostasis was induced (TK6 cells [4]): up to 35 µM
5 | c1ccc2c(c1)cc1ccc3cccc4ccc2c1c34 [benzo [a] pyrene] | – | – | – | – | – | – | – | micronuclei induction (TK6 cells [5]): failed to induce micronuclei
6 | CCCC(C(=O)c1ccc2c(c1)OCO2)N1CCCC1 (stereo not shown) [MDPV] | – | – | – | – | – | – | – | superoxide levels (SH-SY5Y): increase in superoxide levels; concentration that increased O2•− levels (HepG2): 2 mM
7 | CCCC(C(=O)c1ccccc1)N1CCCC1 (stereo not shown) [αPVP] | – | – | – | – | – | – | – | superoxide levels (SH-SY5Y): increase in superoxide levels
8 | CNC(C)C(=O)c1ccc2c(c1)OCO2 (stereo not shown) [methylone] | – | – | – | – | – | – | – | superoxide levels (SH-SY5Y): increase in superoxide levels
9 | CNC(C)C(=O)c1ccc(C)cc1 (stereo not shown) [mephedrone] | – | – | – | – | – | – | – | concentration that increased O2•− levels (HepG2): 1 mM
10 | COc1cc(CCN)c(OC)cc1I [2C-I, 2,5-Dimethoxy-4-iodophenethylamine] | 90.9% ± 0.7 | 89.6% ± 2.2 | 72.5% ± 2.0 | 63.9% ± 1.6 | 54.8% ± 0.9 | 30.8% ± 1.0 | up to 35 µM | MNi frequency fold increase (TK6 cells [2]; 35 µM, 26 h): statistically significant increase; apoptosis fold increase (TK6 cells [3]; [8]): never reached a doubling; concentration up to which no cytotoxicity and cytostasis was induced (TK6 cells [4]): up to 35 µM
11 | COc1cc(CCNCc2ccccc2OC)c(OC)cc1Br [25B-NBOMe, 4-bromo-2,5-dimethoxy-N-[(2-methoxyphenyl)methyl]-benzeneethanamine] | 86.4% ± 1.3 | 81.2% ± 2.0 | 50.0% ± 0.8 | 1.0% ± 0.2 | 0.0% | 0.0% | up to 12.5 µM | MNi frequency fold increase (TK6 cells [2]; [9]): increased at both the tested concentrations; relative genotoxic potency (TK6 cells [2]): stronger genotoxic agents than 2C-I and 2C-H; apoptosis fold increase (TK6 cells [3]; [8]): never reached a doubling; concentration up to which no cytotoxicity and cytostasis was induced (TK6 cells [4]): up to 12.5 µM
12 | CC(N)Cc1ccc(F)cc1 (stereo not shown) [4-fluoroamphetamine, 4-Fluoroamphetamine] | – | – | – | – | – | – | – | mitochondrial superoxide levels (HepG2 cells): increase mitochondrial superoxide levels
13 | CNC(C)Cc1ccc2c(c1)OCO2 (stereo not shown) [MDMA, 3,4-methylenedioxy-methamphetamine, reference compound] | 96.0% ± 1.0 | 96.0% ± 0.8 | 98.7% ± 0.9 | 98.0% ± 1.5 | 96.0% ± 1.2 | 91.9% ± 1.3 | all the concentrations tested | MNi frequency fold increase (TK6 cells [2]; 25 and 35 µM, 26 h): did not increase the MNi frequency in any case; genotoxicity (MN test outcome) (TK6 cells [2]; 26 h, without metabolic activation): not genotoxic; ROS fold increase (mean fluorescence intensity) (TK6 cells [6]): did not highlight any ROS level increase; mitochondrial superoxide production (C2C12 myoblast cells): increase in the mitochondrial superoxide production; production of ROS [7]: unable to trigger the production of ROS; ROS levels (primary rat hepatocytes): increase of ROS levels; apoptosis fold increase (TK6 cells [3]; [8]): never reached a doubling; cytotoxic and cytostatic effect (TK6 cells [4]; all concentrations tested (6.25-75 µM)): did not show a cytotoxic and cytostatic effect
14 | CC(N)Cc1ccccc1 (stereo not drawn) [amphetamine, α-methylphenylethylamine] | – | – | – | – | – | – | – | mitochondrial superoxide levels (HepG2 cells): increase mitochondrial superoxide levels
